Laboratory results reported in patent publication US20250099448A1, “HETEROCYCLIC COMPOUNDS” (Hoffmann-La Roche Inc., priority 2022, published 2025).

What follows are molecules tested against T1, MAGL protein (Homo sapiens, UniProt Q99685) (assay: 2-AG assay: MAGL inhibitory activity by hydrolysis of 2-arachidonoylglycerol to arachidonic acid, followed by mass spectrometry). Conditions: 8 μM 2-arachidonoylglycerol, 15 min preincubation, 30 min reaction at RT, RapidFire MS readout.
T1 sequence (Q99685 1-303): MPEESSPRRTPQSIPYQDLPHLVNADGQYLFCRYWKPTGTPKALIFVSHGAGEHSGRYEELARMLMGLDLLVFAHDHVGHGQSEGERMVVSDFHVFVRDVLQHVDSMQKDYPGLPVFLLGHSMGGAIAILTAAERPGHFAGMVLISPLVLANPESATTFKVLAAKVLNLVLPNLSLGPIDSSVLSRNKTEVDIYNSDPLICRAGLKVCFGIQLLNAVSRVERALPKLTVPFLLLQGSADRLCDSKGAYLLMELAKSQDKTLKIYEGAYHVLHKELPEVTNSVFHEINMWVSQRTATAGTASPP
Assay type: biochemical
Procedure: Compounds of formula (I) were profiled for MAGL inhibitory activity by determining the enzymatic activity by following the hydrolysis of the natural substrate 2-arachidonoylglycerol (2-AG) resulting in arachidonic acid, which can be followed by mass spectrometry. This assay is hereinafter abbreviated “2-AG assay”. The 2-AG assay was carried out in 384 well polypropylene assay plates. Compound dilutions were made in 100% DMSO in a polypropylene plate in 3-fold dilution steps to give a final concentration range in the assay from 12.5 μM to […]. Compound dilutions were added to MAGL protein in assay buffer (50 mM TRIS, 1 mM EDTA, 0.01% (v/v) Tween-20, 2.5% (v/v) DMSO). After shaking, the plate was incubated for 15 min at RT. To start the reaction, 2-arachidonoylglycerol in assay buffer was added. The final concentrations in the assay was […] for MAGL protein and 8 μM 2-arachidonoylglyerol. After shaking and 30 min incubation at RT, the reaction was quenched by the addition of two assay volumes of acetonitrile containing 4 μM of d8-arachidonic acid. The amount of arachidonic acid formed was traced by an online SPE system (Agilent Rapidfire) coupled to a triple quadrupole mass spectrometer. A C18 SPE cartridge (Agilent G9205A) was used in an acetonitrile/water liquid setup. The mass spectrometer was operated in negative electrospray mode following the mass transitions 303.1→259.1 for arachidonic acid and 311.1→267.0 for d8-arachidonic acid. The activity of the compounds was calculated based on the ratio of intensities [arachidonic acid/d8-arachidonic acid].

Compared with `O=C(N1CC(OCc2ccc(C(F)(F)F)cc2F)C1)N1CC2(CC(c3nnc([C@@H](O)C(F)(F)F)[nH]3)C2)C1` (single isomer, unassigned) [Example 388], `O=C(N1CC(c2ccc(C3(C(F)(F)F)CC3)cc2)C1)N1CC2(CC(c3nnc(C(O)C(F)(F)F)[nH]3)C2)C1` (stereo not shown) [compound 228] is 28-fold lower in IC50: 410 nM for the first, 14.8 nM for the second. The second is the more potent here.

Going from `O=C(N1CC2(CCN(S(=O)(=O)c3ccc(C(F)(F)F)cc3F)CC2)C1)N1CC2(CC(c3nnc(C4CC4)[nH]3)C2)C1` [compound 240] to `CS(=O)(=O)c1cccc(CN2CCC3(CC2)CN(C(=O)N2CC4(CC(c5nnc(C6CC6)[nH]5)C4)C2)C3)c1` [compound 181], the IC50 rises from 1.27 nM to 36.2 nM (29-fold).

First: O=C(N1CC2(CC(Cc3ccc4nc(C(F)(F)F)cn4c3)C2)C1)N1CC2(CC(c3nc(C4CC4)n[nH]3)C2)C1 [compound 990]
Second: O=C(N1CC2(CC(Cc3ccc(S(=O)(=O)C(F)(F)F)cc3)C2)C1)N1CC2(CC(c3nc(C4CC4)n[nH]3)C2)C1 [compound 420]
The IC50 of the first is 29-fold higher: 0.59 nM for the first, 0.02 nM for the second. The second is the more potent here.

First: O=C(N1CC2(CC(Cc3ccc(C(F)(F)F)cn3)C2)C1)N1CC2(CC(c3nnc(C4CC4)[nH]3)C2)C1 [compound 110]
Second: O=C(N1CC2(CC(Cc3ccc(C(F)(F)F)cn3)C2)C1)N1CC2(CC(c3ncn[nH]3)C2)C1 [compound 987]
The IC50 of the first is 9800-fold lower: 0.21 nM for the first, 2060 nM for the second.

Compared with `Cn1nc(CC2CC3(C2)CN(C(=O)N2CC4(CC(c5nc(C6(O)CC6)n[nH]5)C4)C2)C3)cc1C(F)(F)F` [compound 491], `Cn1nc(C(F)(F)F)cc1CC1CC2(C1)CN(C(=O)N1CC3(CC(c4nc(C5(O)CC5)n[nH]4)C3)C1)C2` [compound 775] is 5.9-fold higher in IC50: 0.34 nM for the first, 2.01 nM for the second. The first is the more potent here.

Compared with `O=C(N1CC2(CC(c3nc(C4CC4)n[nH]3)C2)C1)N1CC2(CC(c3nc(C4CC4)n[nH]3)C2)C1` [compound 407], `O=C(N1CC2(CC(Cc3cc(C4CC4)n[nH]3)C2)C1)N1CC2(CC(c3nc(C4CC4)n[nH]3)C2)C1` [compound 644] is 42-fold lower in IC50: 9.24 nM for the first, 0.22 nM for the second. The second is the more potent here.

Going from `Cc1cc(C2CC2)nn1CC1CC2(C1)CN(C(=O)N1CC3(CC(c4nc(C5CC5)n[nH]4)C3)C1)C2` [compound 847] to `O=C(N1CC2(CC(Cc3cc(C(F)(F)F)ncn3)C2)C1)N1CC2(CC(c3nc(C4CC4)n[nH]3)C2)C1` [compound 400], the IC50 rises from 0.53 nM to 1.17 nM (2.2-fold). The first is the more potent here.

Going from `CS(=O)(=O)c1cc(C(F)(F)F)ccc1CC1CC2(C1)CN(C(=O)N1CC3(CC(c4nnc(C5(O)CC5)[nH]4)C3)C1)C2` [compound 40] to `O=C(N1CC2(CC(Cc3ccc(C(F)(F)F)nc3)C2)C1)N1CC2(CC(c3nnc(C4(O)CC4)[nH]3)C2)C1` [compound 6], the IC50 rises from 0.4 nM to 1.15 nM (2.9-fold).

Going from `CCOc1cc(C)n(-c2ccc(C3CN(C(=O)N4CC5(CC(c6nnc(C7CC7)[nH]6)C5)C4)C3)cc2)n1` [Example 559, [6-(5-cyclopropyl-4H-1,2,4-triazol-3-yl)-2-azaspiro[3.3]heptan-2-yl]-[3-[4-(3-ethoxy-5-methyl-pyrazol-1-yl)phenyl]azetidin-1-yl]methanone] to `Cc1nc(C(F)F)nn1-c1ccc(C2CN(C(=O)N3CC4(CC(c5nnc(C6CC6)[nH]5)C4)C3)C2)cc1` [compound 534], the IC50 rises from 0.46 nM to 5.42 nM (12-fold). The first is the more potent here.

First: O=C(N1CC2(CCC(S(=O)(=O)c3ccc(C(F)(F)F)cc3)CC2)C1)N1CC2(CC(c3nc(C4(O)CC4)n[nH]3)C2)C1 [compound 550]
Second: O=C(N1CC2(CC(Cc3cccc(S(=O)(=O)C(F)(F)F)c3)C2)C1)N1CC2(CC(c3nc(C4(F)CC4)n[nH]3)C2)C1 [compound 627]
The IC50 of the first is 200-fold higher: 9.81 nM for the first, 0.05 nM for the second.

Compared with `O=C(N1CC2(CC(c3ccc(S(=O)(=O)C(F)(F)F)cc3)C2)C1)N1CC2(CC(c3nnc(C4CC4)[nH]3)C2)C1` [compound 413], `O=C(N1CC(c2ccc(C3(C(F)(F)F)CC3)cc2)C1)N1CC2(CC(c3nnc(C4CC4)[nH]3)C2)C1` [compound 226] is 3.1-fold lower in IC50: 0.34 nM for the first, 0.11 nM for the second. The second is the more potent here.

First: O=C(N1CC2(CC(c3nc(C4CC4)n[nH]3)C2)C1)N1CC2(CC(S(=O)(=O)c3cccc(OC(F)(F)F)c3)C2)C1 [compound 533]
Second: N=S(=O)(c1cccc(CC2CC3(C2)CN(C(=O)N2CC4(CC(c5nc(C6CC(F)(F)C6)n[nH]5)C4)C2)C3)c1)C(F)(F)F (stereo not shown) [compound 668]
The IC50 of the first is 1.8-fold lower: 5.57 nM for the first, 9.75 nM for the second.

Compared with `NC(=O)C1CCCN1c1ccc(C2CN(C(=O)N3CC4(CC(c5nnc(C6CC6)[nH]5)C4)C3)C2)cc1` (stereo not shown) [compound 386], `NC(=O)[C@H]1CC(F)(F)CCN1c1ccc(C2CN(C(=O)N3CC4(CC(c5nnc(C6CC6)[nH]5)C4)C3)C2)cc1` [Example 396, (2R)-1-[4-[1-[6-(5-cyclopropyl-4H-1,2,4-triazol-3-yl)-2-azaspiro[3.3]heptane-2-carbonyl]azetidin-3-yl]phenyl]-4,4-difluoro-piperidine-2-carboxamide] is 52-fold lower in IC50: 246 nM for the first, 4.77 nM for the second.

First: O=C(N1CC(C23CC(c4ccc(F)cc4)(C2)C3)C1)N1CC2(CC(c3nc(C4(O)CC4)n[nH]3)C2)C1 [compound 674]
Second: O=C(N1CC2(CC(Cc3ccc4ncnn4c3)C2)C1)N1CC2(CC(c3nc(C4(O)CC4)n[nH]3)C2)C1 [compound 626]
The IC50 of the first is 7-fold lower: 8.08 nM for the first, 56.4 nM for the second.

Going from `CS(=O)(=O)c1ccc(-c2ccc(C3CN(C(=O)N4CC5(CC(c6nnc(C7CC7)[nH]6)C5)C4)C3)cc2)c(Cl)c1` [compound 338] to `CS(=O)(=O)c1ccccc1COC1CN(C(=O)N2CC3(CC(c4nnc(C5CC5)[nH]4)C3)C2)C1` [compound 335], the IC50 rises from 0.09 nM to 467 nM (5200-fold). The first is the more potent here.

Going from `O=C(N1CC(c2ccc(C3(C(F)(F)F)CC3)nc2)C1)N1CC2(CC(c3nnc(C4(O)CC4)[nH]3)C2)C1` [compound 232] to `O=C(N1CC(c2ccc(NC3(C(F)(F)F)CC3)nc2)C1)N1CC2(CC(c3nnc(C4(O)CC4)[nH]3)C2)C1` [compound 272], the IC50 falls from 43.6 nM to 3.67 nM (12-fold). The second is the more potent here.

Going from `O=C(N1CC2(CC(c3nc(C(F)(F)F)n[nH]3)C2)C1)N1CC2(CN(Cc3ccc(S(=O)(=O)C(F)(F)F)cc3)C2)C1` [compound 850] to `O=C(N1CC2(CC(c3nc(C4CC(F)(F)C4)n[nH]3)C2)C1)N1CC2(CN(Cc3cc(C(F)(F)F)no3)C2)C1` [compound 758], the IC50 rises from 13.7 nM to 145 nM (11-fold). The first is the more potent here.

First: O=C(N1CC2(CC(c3nc(C4CC4)n[nH]3)C2)C1)N1CC2(CN(Cc3nc(CC(F)(F)F)no3)C2)C1 [compound 695]
Second: O=C(N1CC2(CC(Cc3ncn(CC(F)(F)F)n3)C2)C1)N1CC2(CC(c3nc(C4CC4)n[nH]3)C2)C1 [compound 962]
The IC50 of the first is 9.9-fold higher: 43.8 nM for the first, 4.41 nM for the second.

`O=C(N1CC2(CC(c3nc(C4CC4)n[nH]3)C2)C1)N1CC2(CC(C(F)(F)c3cnc(C(F)(F)F)cn3)C2)C1` [compound 944] and `O=C(N1CC2(CC(Cc3nccc(C(F)(F)F)n3)C2)C1)N1CC2(CC(c3nc(C4CC4)n[nH]3)C2)C1` [compound 403] are within 1.5-fold of each other in IC50: 0.96 nM for the first, 0.75 nM for the second.

`O=C(N1CC2(CC(Cc3cnc(C(F)(F)F)cn3)C2)C1)N1CC2(CC(c3nc(C4(O)CC4)n[nH]3)C2)C1` [compound 4] and `O=C(N1CC2(CC(Cc3nc(C(F)(F)F)ns3)C2)C1)N1CC2(CC(c3nnc(C4(O)CC4)[nH]3)C2)C1` [compound 60] are within 1.5-fold of each other in IC50: 4.89 nM for the first, 4.03 nM for the second.

Compared with `CS(=O)(=O)c1cc(Cl)ccc1CC1CC2(CCN(C(=O)N3CC4(CC(c5nnc(C6CC6)[nH]5)C4)C3)C2)C1` (stereo not shown) [Example 892, [2-(4-chloro-2-mesyl-benzyl)-6-azaspiro[3.4]octan-6-yl]-[6-(5-cyclopropyl-4H-1,2,4-triazol-3-yl)-2-azaspiro[3.3]heptan-2-yl]methanone], `CS(=O)(=O)c1ccc(CC2CC3(C2)CN(C(=O)N2CC4(CC(c5nnc(C6CC6)[nH]5)C4)C2)C3)c(F)c1` [compound 130] is 140-fold lower in IC50: 12.3 nM for the first, 0.09 nM for the second.

First: O=C(N1CC2(CC(c3nnc(C4CC4)[nH]3)C2)C1)N1CC2(C1)CN(S(=O)(=O)NCc1ccc(F)cc1)C2 [compound 214]
Second: CC(C)(C)n1nnc(C2(c3ccc(C4CN(C(=O)N5CC6(CC(c7nnc(C8CC8)[nH]7)C6)C5)C4)cc3)CC2)n1 [compound 365]
The IC50 of the first is 330-fold higher: 19.9 nM for the first, 0.06 nM for the second.

Going from `NC(=O)c1cc(Cl)cnc1OCC1CCN(C(=O)N2CC3(CC(c4nc(C5CC5)n[nH]4)C3)C2)CC1` [Example 899] to `Cc1cc([C@@H](C)C2CC3(C2)CN(C(=O)N2CC4(CC(c5nc(C6CC6)n[nH]5)C4)C2)C3)ncc1C(F)(F)F` [compound 966], the IC50 falls from 100 nM to 0.14 nM (710-fold). The second is the more potent here.

Compared with `Cn1nc(CC2CC3(C2)CN(C(=O)N2CC4(CC(c5nc(C6CC(F)(F)C6)n[nH]5)C4)C2)C3)cc1C(F)(F)F` [compound 511], `O=C(N1CC(c2ccc(N3CC(C(F)(F)F)C3)cc2)C1)N1CC2(CC(c3nnc(C4(O)CC4)[nH]3)C2)C1` [compound 262] is 11-fold lower in IC50: 20.8 nM for the first, 1.96 nM for the second. The second is the more potent here.

`O=C(N1CCC(c2nn(C[C@@H](O)C(F)(F)F)c3ccc(Cl)cc23)CC1)N1CC2(CC(c3nnc(C4CC4)[nH]3)C2)C1` [Example 865, [4-[5-chloro-1-[(2R)-3,3,3-trifluoro-2-hydroxy-propyl]indazol-3-yl]piperidino]-[6-(5-cyclopropyl-4H-1,2,4-triazol-3-yl)-2-azaspiro[3.3]heptan-2-yl]methanone] was tested, and the IC50 was 19.4 nM.
